Consider one compound from patent publication US5873359A, “Methods and devices for treating pulmonary vasoconstriction and asthma” (The General Hospital Corporation, priority 1994, dated 1999).

Series [1] in a line: Stability of SNAP. In kind it is physicochemical. As to conditions: crystals at 0° C., up to 120 days, absorbance at 595 nm. From the text:
Alternatively, a mammal (in particular, a human) with or at risk of developing bronchoconstriction (e.g., asthma) or reversible pulmonary vasoconstriction may be treated with a therapeutically-effective amount of a nitric oxide-releasing compound. Known nitric oxide-releasing compounds (also referred to as nitric oxide-donor or nitric oxide-generating compounds) useful in the methods and devices of the invention can be divided into three categories: (a) nitroso or nitrosyl compounds (e.g., S-nitroso-N-acetylpenicillamine, S-nitroso-L-cysteine, and nitrosoguanidine) characterized by an --NO moiety that is spontaneously released or otherwise transferred from the compound under physiological conditions such as obtain in the lung; (b) compounds in which NO is a ligand on a transition metal complex, and as such is readily released or transferred from the compound under physiological conditions (e.g., nitroprusside, NO-ferredoxin, or an NO-heme complex); and (c) nitrogen-containing compounds which are metabolized by enzymes endogenous to the respiratory and/or vascular system to produce the NO radical (e.g., arginine, glyceryl trinitrate, isoamyl nitrite, inorganic nitrite, azide, and hydroxylamine). […]

For series [2], the system named is experimentally-elevated PA pressure. Kind of series: SNAP inhalation in sheep with experimentally-elevated PA pressure. In kind it is in vivo. Particulars: inhalation 1.3 mg/kg. From the text: This method will provide a longer-lasting beneficial effect than briefly inhaling gaseous NO, as the deposited NO-releasing compound would slowly release NO over a relatively long period of time. Formulation and dosage of a selected NO-releasing compound can be determined without undue experimentation by one of ordinary skill in the art. As one example, a typical single inhaled dose of an NO-releasing compound such as S-nitroso-N-acetylpenicillamine (SNAP) or S-nitrosocysteine in dry powder form could range from 60 to 650 μg of the active compound (NO) per kg bodyweight, for approximately an hour of dilation.

For series [3] the following is noted: cited from earlier work.
Series [4] relates to methacholine bronchoconstriction. Kind of series: SNAP aerosol during methacholine bronchoconstriction. In kind it is in vivo, Hartley strain guinea pigs. As to conditions: nebulized, 20 breaths, 5 guinea pigs (FIG. 16). The method, then: Male Hartley strain guinea pigs (300-440g body wt) were anesthetized with α-chloralose (50 mg/kg) and urethane (500 mg/kg) (Drazen et al., J. Appl. Physiol. 48:613-618, 1980). A tracheostomy was performed, and the animals were intubated with a tubing adaptor (ID 1.65 mm) and ventilated with a small animal ventilator (Harvard Apparatus, a division of Ealing Scientific, Natick, Mass.) at 8 ml/kg and 60 breaths/min. A jugular vein was cannulated for intravenous administration of drugs. The chest was opened by bilateral excision of a portion of the ribs anteriorly so that the lungs were exposed to atmospheric pressure (Shore and Drazen, J. Appl. Physiol. 67:2504-2511, 1989). A positive end expiratory pressure of 3-4 cmH2 O was provided.
Guinea pigs were then placed inside a plethysmograph (Amdur and Mead, Am. J. Physiol. 192:363-368, 1958), that was connected to a large reservoir containing copper mesh to maintain the plethysmograph isothermal. Plethysmograph pressure was measured with a differential pressure transducer (Celesco, Canoga Park, Calif.); the opposite side of this transducer was connected to a similar reservoir. Pressure at the airway opening was measured from a side tap in the tracheal canula. Transpulmonary pressure was measured with a differential pressure transducer (Celesco) as the difference between airway opening pressure and the pressure inside the plethysmograph. […]

Turning to `CC(=O)N[C@H](C(=O)O)C(C)(C)SN=O` (racemic) [SNAP, S-nitroso-N-acetylpenicillamine], the degradation on storage entry in series [1] is “without detectable degradation”. The PA pressure entry in series [2] is listed as “prolonged reduction in PA pressure”. In series [3] (solid form), the “stability of solid form” value is recorded as “stable in its solid form”. For the same compound, in series [3] (under physiological conditions), the “decomposition to release NO” value was “readily decomposes to release NO”. Further, in series [4], the “duration of reduction of lung resistance” value is “about 15 minutes”; the lung resistance result was “prompt and profound reduction of lung resistance”.
